Data set [1] can be described thus: Loading capacity of protein composition C with hydrophilic and hydrophobic agents. The note with it: in protein composition C, room temperature. It is filed as physicochemical.
Another data set relates to 3T3. Put plainly: In Vitro 3T3 NRU Phototoxicity Test (OECD 432). To be noted: for IC50: Mus musculus, NIH3T3, light or radiation study. It is filed as cell-based.
For data set [2] the following is noted: agent in water, in words; cited from earlier work.
The mark [3] stands for this setting: loading trial to date, not maximum loading.
Where [4] appears, read: read-out: Cell Viability IC50 Minus UVA.
[5] abbreviates: read-out: Cell Viability IC50 Plus UVA.

This is an account of results in patent publication US20210154359A1, “FIBRILLAR-PROTEIN BASED COMPOSITIONS AND USES THEREOF” (Hi-Aspect Limited, priority 2017, published 2021).

≈ marks a conversion by molar mass, not a printed value. Like-named read-outs stand apart in the source and are kept apart here.

In general, IC50 refers to the point on the concentration scale where inhibition reaches its midpoint.

For the compound `O=C1O[C@H]([C@@H](O)CO)C(O)=C1O` [Ascorbic acid], the Loading in data set [1] (maximum loading) was 350 mg/g. In turn, `O=C(O)c1ccccc1` [Benzoic acid] registered a Loading in data set [1] (setting [3]) of 10 mg/g.

The compound `Cn1c(=O)c2c(ncn2C)n(C)c1=O` [Caffeine] came in with a Loading in data set [1] (maximum loading) of 350 mg/g.

For the compound `CN(C)CCCN1c2ccccc2Sc2ccc(Cl)cc21` [Chlorpromazine], in the data set on 3T3, the “Comment (phototoxicity)” value is “Phototoxic”, the “Mean MPE” value stood at 0.510 and the “Mean PIF” value is listed as 70. The IC50 in the data set with 3T3 (setting [4]) is 7 µg/mL (≈ 22 µM). Further, the IC50 in the data set with 3T3 (setting [5]) came out at 0.1 µg/mL. On to `N[C@@H](Cc1c[nH]cn1)C(=O)O` [Histidine], for which, in the data set on 3T3, the “Mean MPE” value is recorded as −0.016 and the “Mean PIF” value was 1.0. Moreover, the 50% inhibitory concentration (IC50) in the data set on 3T3 (setting [4]) was > 1000 µg/mL. Further, in the data set with 3T3 (setting [5]), the IC50 was > 1000 µg/mL. As for `CN(C)c1ccc2nc3ccc(=[N+](C)C)cc-3sc2c1` [Methylene blue], the Loading in data set [1] (setting [3]) is reported as 10 mg/g. Still for that read-out and setting: the figure for `C=C[C@H]1C[N@@]2CC[C@H]1C[C@H]2[C@H](O)c1ccnc2ccc(OC)cc12` [Quinine sulphate] is 10 mg/g. Turning to `CC1=C(/C=C/C(C)=C/C=C/C(C)=C/C=O)C(C)(C)CCC1` [Retinal], the Loading in data set [1] (setting [3]) is 1 mg/g. Besides, in data set [2], the “Solubility (water)” value is on record as “Nearly insoluble”. `CCCCCCCCCCCCCCCC(=O)OC/C=C(C)/C=C/C=C(C)/C=C/C1=C(C)CCCC1(C)C` [Retinyl palmitate] displayed a Loading in data set [1] (setting [3]) of 25 mg/g. The “Solubility (water)” value in data set [2] is listed as “Insoluble”. With `N[C@@H](Cc1c[nH]c2ccccc12)C(=O)O` [Tryptophan], the Loading in data set [1] (maximum loading) is 350 mg/g.
